A short description of the series: photoluminescence quantum yield (fraction); solvent given as SMILES.
Setting [1] is: in O=P(c1ccccc1)(c1ccccc1)c1ccccc1Oc1ccccc1P(=O)(c1ccccc1)c1ccccc1.
The mark [2] stands for this setting: in c1ccc2c(c1)c1ccccc1n2-c1ccc(-c2ccc(-n3c4ccccc4c4ccccc43)cc2)cc1.

Turning to `CC1=[N+]2C(=C(NC(C)c3ccccc3)c3ccc(C)n3[B-]2(F)F)C=C1c1cc2n(c1)[B-](F)(F)[N+]1=CC=CC1=C2c1c(C)cc(C)cc1C` (stereo not given), the photoluminescence quantum yield is 0.31 (in C1CCCCC1) and 0.05 (in CCOC(C)=O).
Turning to `N=c1oc2cccc3c4c(-c5ccccc5)oc5cccc(c(c1-c1ccccc1)c23)c54`, under “in ClC(Cl)Cl”, the photoluminescence quantum yield is 0.04.
Where the note is “in ClC(Cl)Cl”, `Clc1ccc(-c2nc(-c3ccccc3)sc2N(c2ccccc2)c2ccccc2)cc1` returned a photoluminescence quantum yield of 0.33.
Compound `c1ccc(Nc2nc(Nc3ccccc3)nc(Nc3ccc4c5cccc6cccc(c7cccc3c74)c65)n2)cc1` displayed a photoluminescence quantum yield (in C1COCCO1) of 0.52, a photoluminescence quantum yield (in CC#N) of 0.42, a photoluminescence quantum yield (in CCCCOCCCC) of 0.5 and a photoluminescence quantum yield (in CCOC(C)=O) of 0.44.
For the compound `CCN(CC)c1ccc2c(c1)oc(=O)c1c(=O)oc3c(C)c4oc(=O)c5c(=O)oc6cc(N(CC)CC)ccc6c5c4cc3c12`, the photoluminescence quantum yield reads like this: (in CS(C)=O) 0.002; (in ClCCl) 0.67.
Compound `CCCCCCN1C(=O)c2cccc3c(-c4ccc(-c5cc(-c6ccccc6)n(-c6ccccc6)n5)s4)ccc(c23)C1=O` displayed a photoluminescence quantum yield (in ClCCl) of 0.35.
On to `c1ccc(-c2nc(-c3ccccc3)c(N(c3ccccc3)c3ccccc3)[se]2)cc1`, for which the photoluminescence quantum yield (in ClC(Cl)Cl) was 0.068.
As for `O=C(c1ccncc1)c1ccc(-n2c3ccc(-n4c5ccccc5c5ccccc54)cc3c3cc(-n4c5ccccc5c5ccccc54)ccc32)cc1`, the photoluminescence quantum yield is, setting by setting: (in Cc1ccccc1) 0.243; (in c1cc(-c2cccc(-n3c4ccccc4c4ccccc43)c2)cc(-n2c3ccccc3c3ccccc32)c1) 0.96.
On to `O=[N+]([O-])c1ccc(NCCNCc2c3ccccc3cc3ccccc23)c([N+](=O)[O-])c1`, for which the photoluminescence quantum yield by setting is: (in C1CCCCC1) 0.0003; (in C1CCOC1) 0.00044; (in CC#N) 0.00168; (in CC(C)=O) 0.0024; (in CCO) 0.0363; (in CN(C)C=O) 0.00369. The photoluminescence quantum yield (in CO) stood at 0.0334 and the photoluminescence quantum yield (in ClC(Cl)Cl) turned out to be 0.0061.
`Cc1nc(-c2cc(C(F)(F)F)ccc2O)n2c1CCCC2`: the photoluminescence quantum yield (in ClCCl) turned out to be 0.61.
Compound `c1ccc2c(c1)c1ccccc1n2-c1ccc(-c2nnc(-c3ccc(-n4c5ccccc5c5ccccc54)cc3)o2)cc1` came in with a photoluminescence quantum yield under setting [1] of 0.93.
As to `C1=C(c2ccccc2)C2=Nc3c(-c4ccccc4)cc4n3[B-]3(Oc5ccccc5C1=[N+]23)Oc1ccccc1-4` (stereo not given), the photoluminescence quantum yield (in Cc1ccccc1) was 0.51.
With `N#Cc1cc(-n2c3ccccc3c3ccccc32)c(-n2c3ccccc3c3cc(Br)ccc32)cc1C#N`, the photoluminescence quantum yield is, setting by setting: (in C1CCOC1) 0.061; under setting [2], 0.555.
In turn, `c1cc2c3c(cccc3c1)-c1cc3c(ccc4ccccc43)cc1-2` came in with a photoluminescence quantum yield (in CCCCCCC) of 0.65.
Take `c1ccc(-c2nc(-c3ccc(-c4nc(-c5ccccc5)c(-c5ccccc5)o4)cc3)oc2-c2ccccc2)cc1`: for the setting “in C1COCCO1”, the photoluminescence quantum yield amounted to 0.63.
Regarding `CC1(C)c2ccccc2N(c2ccc(C(=O)c3cc(C(=O)c4ccc(N5c6ccccc6C(C)(C)c6ccccc65)cc4)cc(C(=O)c4ccc(N5c6ccccc6C(C)(C)c6ccccc65)cc4)c3)cc2)c2ccccc21`, the photoluminescence quantum yield was 0.189 (in Cc1ccccc1) and 0.856 under setting [2].
As to `COc1ccc(-c2c(-c3ccc(OC)cc3)c3c4c(cccc4c2-c2ccccc2)C(=O)c2ccccc2-3)cc1`, the photoluminescence quantum yield was 0.55 (in CC#N) and 0.05 (in CO).
With `O=C([O-])c1cc2c(ccc3ccccc32)oc1=O`, the photoluminescence quantum yield (in O) is 0.24.
In turn, `CC1(C)c2ccccc2N(c2ccc(-c3ccc(C#N)cc3)cc2)c2ccccc21` gave a photoluminescence quantum yield (in Cc1ccccc1) of 0.178 and a photoluminescence quantum yield (in N#Cc1ccc2c(c1)c1ccccc1n2-c1cccc(-n2c3ccccc3c3ccccc32)c1) of 0.36.
As for `Brc1ccc(-c2pc3ccccc3s2)cc1` (stereo not given), the photoluminescence quantum yield (in CC#N) was 0.032.
`COC(=O)c1ccc(/C=C2\C=C(c3ccccc3)OC2=O)cc1` registered a photoluminescence quantum yield (in C1COCCO1) of 0.007.
`Cc1c2ccc(=[N+]3CCCCC3)cc-2oc2cc(N3CCCCC3)ccc12` came in with a photoluminescence quantum yield (in ClCCl) of 0.91.
In turn, `COc1ccc(C2=[N+]3C(=Nc4c(-c5ccc6ccccc6c5)cc(-c5ccc(OC)cc5)n4[B-]3(F)F)C(c3ccc4ccccc4c3)=C2)cc1` gave a photoluminescence quantum yield (in ClCCl) of 0.34.
Compound `c1ccc(CO[Si]23n4c5c6ccccc6c4/N=C4N=C(/N=c6/c7ccccc7c(n62)=c2c6ccccc6c(n23)=N5)c2ccccc2\4)cc1` (stereo not given) displayed a photoluminescence quantum yield (in CN(C)C=O) of 0.24.
`Cn1nc(-c2ccccc2)c2nc3cc(F)ccc3nc21` had a photoluminescence quantum yield (in C1CCCCC1) of 0.61, a photoluminescence quantum yield (in C1CCOC1) of 0.38 and a photoluminescence quantum yield (in CC#N) of 0.11.
In the case of `CCCCCCOc1ccc(N(c2ccc(OCCCCCC)cc2)c2ccc(-c3sc(-c4ccc(N(c5ccc(OCCCCCC)cc5)c5ccc(OCCCCCC)cc5)cc4)c4nc(-c5ccc(C(=O)OC)cc5)c(-c5ccc(C(=O)OC)cc5)nc34)cc2)cc1`, the photoluminescence quantum yield reads like this: (in CN(C)C=O) 0.021; (in ClC(Cl)Cl) 0.026.
Take `CC(C)c1cccc(C(C)C)c1N1C(=O)c2cccc3c(Oc4ccc(C(C)(C)C)cc4)ccc(c23)C1=O`: where the note is “in ClCCl”, the photoluminescence quantum yield was 0.11.
Same read-out and setting: under `CN(C)c1ccc(C#Cc2cc3ccccc3oc2=O)cc1` stands 0.009; under `COc1ccc(-c2cc3c(ccc4sc5ccc6sccc6c5c43)s2)cc1`, 0.12.
Turning to `CCCCN1C(=O)c2cc(Br)c3c4c(Br)cc5c6c(cc(Br)c(c7c(Br)cc(c2c37)C1=O)c64)C(=O)N(CCCC)C5=O`, the photoluminescence quantum yield (in ClC(Cl)Cl) is 0.31.
For `F[B-]1(F)n2c(c3cc4ccccc4cc3c2-c2ccccc2)C=C2c3cc4ccccc4cc3C(c3ccccc3)=[N+]21`, the photoluminescence quantum yield turned out to be 0.16 (in C1CCOC1), 0.14 (in CN(C)C=O), 0.16 (in ClCCl) and 0.21 (in c1ccccc1).
On to `COc1ccc(-c2cn3ccc[n+]3[n-]2)cc1`, for which, where the note is “in ClCCl”, the photoluminescence quantum yield turned out to be 0.062.
Take `O=Cc1c(O)c(-c2nc3ccccc3s2)cc2ccccc12`: the photoluminescence quantum yield stood at 0.066 (in C1CCOC1); 0.052 (in CC#N); 0.053 (in CC(C)=O); 0.07 (in CCO); 0.068 (in CCOC(C)=O); 0.077 (in CN(C)C=O). Moreover, the photoluminescence quantum yield by setting is: (in CO) 0.061; (in Cc1ccccc1) 0.068; (in ClC(Cl)Cl) 0.065; (in ClCCl) 0.109.
With `CC(C)(C)c1ccc2c(c1)c1cc(C(C)(C)C)ccc1n2-c1ccc(-c2ccc3c(c2)C(=O)c2ccc(-c4ccc(-n5c6ccc(C(C)(C)C)cc6c6cc(C(C)(C)C)ccc65)cc4)cc2C3=O)cc1`, the photoluminescence quantum yield turned out to be 0.6 (in Cc1ccccc1) and 0.65 under setting [2].
In the case of `COc1c2ccccc2c(OC)c2c1c1ccccc1n2C`, the photoluminescence quantum yield reads like this: (in C1CCCCC1) 0.46; (in CC#N) 0.55; (in CO) 0.39; (in ClCCl) 0.41.
Turning to `CC1=[N+]2C(=c3c4c5ccccc5cc5cccc(c6cc(C)n(c36)[B-]2(F)F)c54)C=C1`, the photoluminescence quantum yield was determined as 0.48 (in C1CCOC1); 0.48 (in CCCCCC); 0.1 (in CO); 0.03 (in CS(C)=O); 0.4 (in ClC(Cl)Cl); 0.45 (in ClCCl).
The compound `CC(=O)OC[C@H]1O[C@@H](OCC#Cc2ccc(C3=C4C(C)=CC(/C=C/c5ccc([N+](C)(C)C)cc5)=[N+]4[B-](F)(F)n4c(/C=C/c5ccc([N+](C)(C)C)cc5)cc(C)c43)cc2)[C@H](OC(C)=O)C(OC(C)=O)[C@@H]1OC(C)=O` (stereo not given in full) returned a photoluminescence quantum yield (in CC#N) of 0.72.
Under setting [1], `c1ccc(-c2nc(-c3ccccc3)nc(-n3c4ccccc4c4cc(-n5c6ccccc6c6ccccc65)cc(-n5c6ccccc6c6ccccc65)c43)n2)cc1` gave a photoluminescence quantum yield of 0.85.
For the compound `CCCCCCCCCCOc1ccc2cc(C3=C4C(=O)N(CC(OCC)OCC)C(c5cc6ccc(OCCCCCCCCCC)cc6o5)=C4C(=O)N3CC(OCC)OCC)oc2c1`, the photoluminescence quantum yield (in ClC(Cl)Cl) came to 0.75.
For the compound `Cc1ccc2nc3cc4ccccc4cc3c(-c3ccccc3)c2c1`, where the note is “in ClCCl”, the photoluminescence quantum yield is 0.47.
`Brc1cnc(-c2ccncc2)s1` registered a photoluminescence quantum yield (in CO) of 0.02.
Compound `c1ccc(-n2nc(-c3ccc(N4c5ccccc5Sc5ccccc54)cc3)nc2-c2ccccn2)cc1` gave a photoluminescence quantum yield (in ClCCl) of 0.0562.
Turning to `CCC1=C(C)C2=Cc3cc(I)cn3[B-](F)(F)[N+]2=C1C`, the photoluminescence quantum yield was found to be 0.113 (in C1CCCCC1); 0.063 (in CC(C)=O); 0.07 (in CCO); 0.078 (in CCOC(C)=O); 0.069 (in CO); 0.05 (in OCC(F)(F)F).
On to `O=c1oc2ccc3ccccc3c2nc1-c1ccccc1`, for which the photoluminescence quantum yield runs as follows: (in CC#N) 0.56; (in CCCCCC) 0.12; (in CO) 0.5; (in c1ccccc1) 0.46.
On to `c1ccc(-c2cc(-c3ccc(N4c5ccccc5C(c5ccccc5)(c5ccccc5)c5ccccc54)cn3)nc(-c3ccccc3)n2)cc1`, for which, under setting [1], the photoluminescence quantum yield came to 0.86.
The compound `COc1ccc(/C=C/c2ccccc2)cc1OC` gave a photoluminescence quantum yield (in C1CCCCC1) of 0.06; a photoluminescence quantum yield (in CC#N) of 0.035; a photoluminescence quantum yield (in CC(C)O) of 0.041; a photoluminescence quantum yield (in CCCCOCCCC) of 0.05; a photoluminescence quantum yield (in CCOC(C)=O) of 0.046; a photoluminescence quantum yield (in CCOCC) of 0.051.

The values are drawn from the Deep4Chem optical property database.
